These are literature values, as cited in patent publication US6090828A, “5-aryleheteroarylalkyl-1,3,5-trisubstituted-1,2,4-triazole compounds for treatment of circulatory disorders” (priority 1997, dated 2000).

The test system of the data set is angiotensin II receptor. To be noted: background statement; cited from earlier work.

Consider `CNCC(=O)N[C@@H](CCCN=C(N)N)C(=O)N[C@H](C(=O)N[C@@H](Cc1ccc(O)cc1)C(=O)N[C@H](C(=O)N[C@@H](Cc1cnc[nH]1)C(=O)N1CCC[C@H]1C(=O)N[C@@H](C)C(=O)O)C(C)C)C(C)C` [Saralasin], for which the residual agonist activity result is reported as “significant residual agonist activity”.
